Reference: ChEMBL document CHEMBL4619702, “Inhibitors of the Zika virus protease NS2B-NS3” (Bioorg Med Chem Lett, 2020)
One block for each molecule: values may come before it. Where a SMILES comes first, the peptide text is derived from it. The star is where a group is joined. NHBn = c1ccc(CN*)cc1

What was measured:
[1] = biological target: T1, Nonstructural protein 3 (Zika virus, UniProt A0A024AXB9); experiment: Inhibition of Zika virus NS2B-NS3 protease
[2] = biological target: T1, Nonstructural protein 3; experiment: (§1) Inhibition of Zika virus NS2B-NS3 protease by cell based assay
[3] = biological target: T2, Nonstructural protein 3 (Zika virus) (UniProt A0A024AXB9); experiment: as §1
[4] = Allosteric inhibition of Flavivirus NS2B-NS3 protease
[5] = Allosteric inhibition of Flavivirus NS2B-NS3 protease by cell based assay; conditions: Orthoflavivirus
[6] = biological target: T1, Nonstructural protein 3; experiment: Binding affinity to Zika virus NS2B-NS3 protease
[7] = biological target: T3, Genome polyprotein (West Nile virus, UniProt P06935); experiment: Inhibition of West Nile virus NS2B-NS3 protease
T3 sequence (P06935 1371-1501 limits assumed): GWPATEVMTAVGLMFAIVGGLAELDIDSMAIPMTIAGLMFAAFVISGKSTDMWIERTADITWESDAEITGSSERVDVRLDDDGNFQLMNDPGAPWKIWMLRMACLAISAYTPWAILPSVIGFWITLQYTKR
T3 sequence (P06935 1502-2120 limits assumed): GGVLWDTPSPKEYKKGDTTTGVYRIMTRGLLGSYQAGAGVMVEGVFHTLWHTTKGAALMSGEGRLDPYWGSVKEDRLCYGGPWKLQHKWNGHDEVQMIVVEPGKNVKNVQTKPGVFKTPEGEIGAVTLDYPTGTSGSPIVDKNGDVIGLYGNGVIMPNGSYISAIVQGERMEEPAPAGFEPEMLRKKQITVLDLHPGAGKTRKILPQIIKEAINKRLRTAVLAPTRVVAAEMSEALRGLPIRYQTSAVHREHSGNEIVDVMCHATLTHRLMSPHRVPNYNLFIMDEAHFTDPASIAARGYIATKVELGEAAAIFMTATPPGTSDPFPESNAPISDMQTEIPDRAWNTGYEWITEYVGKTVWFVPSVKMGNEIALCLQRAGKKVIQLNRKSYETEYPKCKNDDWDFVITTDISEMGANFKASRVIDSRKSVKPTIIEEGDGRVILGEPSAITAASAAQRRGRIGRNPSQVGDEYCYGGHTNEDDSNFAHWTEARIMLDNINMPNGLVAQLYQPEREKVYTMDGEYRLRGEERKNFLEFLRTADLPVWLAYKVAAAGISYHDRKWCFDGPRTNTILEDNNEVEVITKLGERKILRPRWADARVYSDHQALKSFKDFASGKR

[8] = biological target: T3, Genome polyprotein; experiment: Binding affinity to West Nile virus NS2B-NS3 protease
[9] = biological target: T2, Nonstructural protein 3 (Zika virus); experiment: Inhibition of Zika virus NS2B-NS3 protease assessed as as ratio of K(obs)/[I] using biotin-tagged peptide (P4-P1) as substrate
[10] = biological target: T1, Nonstructural protein 3; experiment: Allosteric inhibition of Zika virus NS2B-NS3 protease
[11] = biological target: T1, Nonstructural protein 3; experiment: Inhibition of N-terminal His-tagged Zika virus NS2B-NS3 protease (1 to 187 residues) using Boc-Gly-Arg-Arg-AMC as substrate
[12] = biological target: T1, Nonstructural protein 3; experiment: Binding affinity to N-terminal His-tagged Zika virus NS2B-NS3 protease (1 to 187 residues) using Boc-Gly-Arg-Arg-AMC as substrate

SMILES: CN[C@@H](C)C(=O)N[C@H](C(=O)N1CCC[C@H]1C(=O)Nc1sc(-c2ncco2)nc1-c1ccccc1)C1CCCCC1 [GDC-0917]
IC50 [1]: 300 nM

SMILES: CN[C@@H](C)C(=O)N[C@H]1CCCC[C@H]2CC[C@@H](C(=O)NC(c3ccccc3)c3ccccc3)N2C1=O
IC50 [1]: 100 nM

SMILES: CN[C@@H](C)C(=O)N[C@H](C(=O)N1CC[C@H](C)[C@H]1C(=O)Nc1ccccc1-c1ncccn1)C1CCCCC1
Ki [1]: 430 nM

SMILES: C[C@@H]1CN(CC(=O)N2CC(C)(C)c3nc(CO)c(Cc4ccc(F)cc4)cc32)[C@@H](CN2CCOC[C@H]2C)CN1 [ASTX-660]
Ki [1]: 800 to 8900 nM

SMILES: C[C@@H]1CN(CC(=O)N2CCCC2)CCN1
IC50 [4]: 380 nM
EC50 [5]: 1000 nM

SMILES: CCN(CCO)CCCC(C)Nc1ccnc2cc(Cl)ccc12 (stereo unspecified) [HYDROXYCHLOROQUINE]
Ki [1]: 92300 nM

SMILES: CC(C)[C@H](NC(=O)[C@H](C)N)C(=O)N1CCC[C@H]1C(=O)NCc1ccccc1 (H-Ala-Val-Pro-NHBn)
Ki [1]: 140 nM

SMILES: CN[C@@H](C)C(=O)N[C@H]1CC[C@H]2CC[C@@H](C(=O)NC(c3ccccc3)c3ccccc3)N2C1=O
IC50 [7]: 1900 nM
Kd [8]: 2000 nM
Kd [6]: 2000 nM
IC50 [1]: 1900 nM

SMILES: CN[C@@H](C)C(=O)N[C@H](C(=O)N1CCC[C@H]1c1nc(C(=O)c2ccc(F)cc2)cs1)C1CCCCC1
Ratio [9]: 2.94 ×10⁶ /M/s

SMILES: CC(C)C[C@H]1C(=O)N2CCC[C@H]2[C@]2(O)O[C@](NC(=O)[C@@H]3C=C4c5cccc6[nH]c(Br)c(c56)C[C@H]4N(C)C3)(C(C)C)C(=O)N12 [BROMOCRIPTINE]
IC50 [1]: 21600 nM
EC50 [2]: 13000 nM

SMILES: C[C@@H]1CN(CC(=O)N2CC(C)(C)c3ncc(Cc4ccc(F)cc4)cc32)[C@@H](CN2CCOC[C@H]2C)CN1
IC50 [10]: 820 nM

Continued, values first:

IC50 [1]: 14200 nM
EC50 [2]: 24800 nM
SMILES: CO[C@@H]1[C@@H](OC(N)=O)[C@@H](O)[C@H](Oc2ccc3c(O)c(NC(=O)c4ccc(O)c(CC=C(C)C)c4)c(=O)oc3c2C)OC1(C)C [NOVOBIOCIN]

IC50 [1]: 1100 nM
EC90 [3]: 120 nM
EC50 [2]: 22 nM
SMILES: Oc1cccc(-c2c3nc(c(-c4cccc(O)c4)c4ccc([nH]4)c(-c4cccc(O)c4)c4nc(c(-c5cccc(O)c5)c5ccc2[nH]5)CC4)C=C3)c1 [TEMOPORFIN]

IC50 [4]: 200 nM
EC50 [2]: 300 to 600 nM
SMILES: CC[C@H](NC(=O)[C@H](C)NC)C(=O)N1C[C@@H](O)C[C@H]1Cc1c(-c2[nH]c3cc(F)ccc3c2C[C@@H]2C[C@H](O)CN2C(=O)[C@H](CC)NC(=O)[C@H](C)NC)[nH]c2cc(F)ccc12 [BIRINAPANT]

IC50 [1]: 1700 nM
EC50 [2]: 600 nM
SMILES: O=C1OC2(c3ccccc31)c1cc(I)c(O)c(I)c1Oc1c2cc(I)c(O)c1I [ERYTHROSINE]

EC50 [6]: 1930 to 39800 nM
IC50 [1]: 47000 nM
Kd [2]: 28000 nM
SMILES: Cc1ccc(C(=O)Nc2ccc(S(=O)(=O)O)c3cc(S(=O)(=O)O)cc(S(=O)(=O)O)c23)cc1NC(=O)c1cccc(NC(=O)Nc2cccc(C(=O)Nc3cc(C(=O)Nc4ccc(S(=O)(=O)O)c5cc(S(=O)(=O)O)cc(S(=O)(=O)O)c45)ccc3C)c2)c1 [SURAMIN]

IC50 [11]: 4100 nM
Ki [11]: 13500 nM
Kd [12]: 9000 nM
SMILES: CN[C@@H](C)C(=O)N[C@H]1CN(C(=O)CC(C)C)CC[C@H]2CC[C@@H](C(=O)NC(c3ccccc3)c3ccccc3)N2C1=O [XEVINAPANT]
